Tests used:
EP4 = molecular target: T1, EP4 (Homo sapiens, UniProt P35408); assay: Functional calcium flux assay, EP4; assay type: cell-based; conditions: stably transfected HEK293 cells; PGE2 10 nM; read-out: EP4 Ca2+-flux assay IC50
T1 construct: host or cells: stably transfected HEK293 cells co-expressing a promiscuous G protein and a clytin variant
Method: Each receptor subtype has an additional promiscuous G protein added in order to couple the aforementioned receptor to the calcium signaling pathway. The parental cell line used also expresses a novel variant of clytin, a calcium-activated photo-protein, to enable sensitive luminescent detection. Briefly, cells were plated at 50,000 cells-per-well in black, clear bottom 96-well plates. The plated cells were allowed to sit at room temperature for 30 min prior to transferring to a humidified, 37° C., 5% CO2 incubator for 18 to 24 h. Assay buffer (HBSS with 20 mM HEPES) and loading buffer (assay buffer plus 10 μM coelenterazine) were prepared on the day of the assay. Assays were performed by aspirating media from the assay plate and washing once with assay buffer, then replacing with loading buffer and allowing the cells to incubate for 1.5 h at room temperature. Compounds were prepared in assay buffer at a 3× final concentration in non-binding plates. Compounds were added to the cell plates and incubated for 30 min at room temperature. The prostanoid receptor ligand PGE2 was prepared at a 4× dilution ratio for a final concentration of 10 nM. Plates were run on a Flexstation™ using a 100 ms integration luminescence protocol for a total of 60 sec with ligand addition at 15 sec. Data were obtained from relative light units as measured by area under the curve.

EP2 = EP2 (Homo sapiens, UniProt P43116);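 also: functional calcium flux assay in stably transfected HEK293 cells expressing EP2 coupled via a promiscuous G protein, clytin luminescence read as area under the curve, 30 min compound preincubation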
Sequence of EP2 (P43116 whole entry): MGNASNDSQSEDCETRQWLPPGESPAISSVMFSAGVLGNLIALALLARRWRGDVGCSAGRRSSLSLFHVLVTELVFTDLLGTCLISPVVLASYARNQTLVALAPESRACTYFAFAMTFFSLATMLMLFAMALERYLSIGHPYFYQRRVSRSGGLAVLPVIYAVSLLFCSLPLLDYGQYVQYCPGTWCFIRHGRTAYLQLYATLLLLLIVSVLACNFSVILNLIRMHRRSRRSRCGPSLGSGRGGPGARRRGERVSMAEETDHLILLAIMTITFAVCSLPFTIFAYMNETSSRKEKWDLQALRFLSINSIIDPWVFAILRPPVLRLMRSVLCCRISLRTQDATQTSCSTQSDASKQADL

T1 sequence (P35408 whole entry): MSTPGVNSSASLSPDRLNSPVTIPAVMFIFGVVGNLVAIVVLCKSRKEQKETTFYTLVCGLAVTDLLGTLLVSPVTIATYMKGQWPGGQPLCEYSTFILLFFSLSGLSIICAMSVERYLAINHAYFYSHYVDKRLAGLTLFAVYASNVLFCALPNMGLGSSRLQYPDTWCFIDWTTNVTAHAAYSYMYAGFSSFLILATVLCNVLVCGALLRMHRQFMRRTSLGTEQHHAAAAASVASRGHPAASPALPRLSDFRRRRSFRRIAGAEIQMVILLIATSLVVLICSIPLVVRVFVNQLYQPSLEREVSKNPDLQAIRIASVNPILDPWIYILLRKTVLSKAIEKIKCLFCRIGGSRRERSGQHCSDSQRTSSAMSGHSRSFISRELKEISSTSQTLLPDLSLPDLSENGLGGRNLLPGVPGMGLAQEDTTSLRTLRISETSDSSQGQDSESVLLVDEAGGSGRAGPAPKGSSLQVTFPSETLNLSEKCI

Structure (SMILES) | IC50 (EP4) [nM] | IC50 (EP2) [nM]
CCOc1nccc(-c2ccc(Cn3ncc4c(Cl)ccc(C(=O)NC5CC6(C5)CC(C(=O)O)C6)c43)cc2)n1 (stereo not drawn) [Example 84, (Sa)-6-(4-chloro-1-(4-(2-ethoxypyrimidin-6-yl)benzyl)-1H-indazole-7-carboxamido)spiro[3.3]heptane-2-carboxylic acid] | < 1 | < 25
CNC(=O)c1cccc(-c2ccc(Cn3ncc4c(Cl)ccc(C(=O)NC5CC6(C5)CC(C(=O)O)C6)c43)cc2)n1 (stereo not drawn) [Example 85, (Sa)-6-(4-chloro-1-(4-(6-(methylcarbamoyl)pyridin-2-yl)benzyl)-1H-indazole-7-carboxamido)spiro[3.3]heptane-2-carboxylic acid] | < 1 | 30
O=C(NC1CC2(C1)CC(C(=O)O)C2)c1ccc(Cl)c2cnn(Cc3ccc(-c4cccc(OC(F)(F)F)n4)cc3)c12 (stereo not drawn) [Example 86] | 1.8 | 36
CCOc1cc(-c2ccc(Cn3ccc4c(OC)ncc(C(=O)NC5CC6(C5)CC(C(=O)O)C6)c43)cc2)ccn1 (stereo not drawn) [Example 89, (Sa)-6-(1-(4-(2-ethoxypyridin-4-yl)benzyl)-4-methoxy-1H-pyrrolo[3,2-c]pyridine-7-carboxamido)spiro[3.3]heptane-2-carboxylic acid] | 1.3 | 97
CCOc1ncc(C(=O)NC2CC3(C2)CC(C(=O)O)C3)c2c1ccn2Cc1ccc(-c2ccccc2)cc1 (stereo not drawn) [Example 90, (Sa)-6-(1-([1,1′-biphenyl]-4-ylmethyl)-4-ethoxy-1H-pyrrolo[3,2-c]pyridine-7-carboxamido)spiro[3.3]heptane-2-carboxylic acid] | < 1 | 57
CCOc1ccc(-c2ccc(Cn3ccc4c(OC)ncc(C(=O)NC5CC6(C5)CC(C(=O)O)C6)c43)cc2)cn1 (stereo not drawn) [Example 91, (Sa)-6-(1-(4-(6-ethoxypyridin-3-yl)benzyl)-4-methoxy-1H-pyrrolo[3,2-c]pyridine-7-carboxamido)spiro[3.3]heptane-2-carboxylic acid] | < 1 | 59
O=C(NC1CC2(C1)CC(C(=O)O)C2)c1ccc(Cl)c2cnn(Cc3ccc(OC(F)(F)F)cc3)c12 (stereo not drawn) [Example 95, (Sa)-6-(4-chloro-1-(4-(trifluoromethoxy)benzyl)-1H-indazole-7-carboxamido)spiro[3.3]heptane-2-carboxylic acid] | 9 | 83
O=C(NC1CC2(C1)CC(C(=O)O)C2)c1ccc(Cl)c2cnn(Cc3ccc4ccccc4c3)c12 (stereo not drawn) [Example 96, (Sa)-6-(4-chloro-1-(naphthalen-2-ylmethyl)-1H-indazole-7-carboxamido)spiro[3.3]heptane-2-carboxylic acid] | < 1 | < 25
COc1ccc(-c2ccc(Cn3ccc4c(F)ccc(C(=O)NC5CC6(CC(CC(=O)O)C6)C5)c43)cc2)cn1 (stereo not drawn) [Example 138, (Ra)-2-(6-(4-Fluoro-1-(4-(6-methoxypyridin-3-yl)benzyl)-1H-indole-7-carboxamido)spiro[3.3]heptan-2-yl)acetic acid] | < 1 | 25
COc1cc(-c2ccc(Cn3ccc4c(F)ccc(C(=O)NC5CC6(CC(CC(=O)O)C6)C5)c43)cc2)ccn1 (stereo not drawn) [Example 139, (Ra)-2-(6-(4-Fluoro-1-(4-(2-methoxypyridin-4-yl)benzyl)-1H-indole-7-carboxamido)spiro[3.3]heptan-2-yl)acetic acid] | < 1 | < 25
O=C(O)CC1CC2(C1)CC(NC(=O)c1ccc(Cl)c3cnn(Cc4ccc(-c5ccccc5F)cc4)c13)C2 (stereo not drawn) [Example 143, (Ra)-2-(6-(4-Chloro-1-((2′-fluoro-[1,1′-biphenyl]-4-yl)methyl)-1H-indazole-7-carboxamido)spiro[3.3]heptan-2-yl)acetic acid] | < 1 | 35
N#Cc1cccc(-c2ccc(Cn3ncc4c(Cl)ccc(C(=O)NC5CC6(CC(CC(=O)O)C6)C5)c43)cc2)c1 (stereo not drawn) [Example 144, (Ra)-2-(6-(4-Chloro-1-((3′-cyano-[1,1-biphenyl]-4-yl)methyl)-1H-indazole-7-carboxamido)spiro[3.3]heptan-2-yl)acetic acid] | < 1 | < 25
COc1ccc2cc(-c3ccc(Cn4ncc5c(Cl)ccc(C(=O)NC6CC7(CC(CC(=O)O)C7)C6)c54)cc3)ccc2n1 (stereo not drawn) [Example 146, (Ra)-2-(6-(4-Chloro-1-(4-(2-methoxyquinolin-6-yl)benzyl)-1H-indazole-7-carboxamido)spiro[3.3]heptan-2-yl)acetic acid] | < 1 | 82

The remaining lines, values ahead:

IC50 (EP4) [nM] | IC50 (EP2) [nM] | Structure (SMILES)
< 1 | < 25 | COc1ccc2cc(-c3ccc(Cn4ncc5cc(Cl)cc(C(=O)NC6CC7(CC(CC(=O)O)C7)C6)c54)cc3)ccc2n1 (stereo not drawn) [Example 147, (Ra)-2-(6-(5-Chloro-1-(4-(2-methoxyquinolin-6-yl)benzyl)-1H-indazole-7-carboxamido)spiro[3.3]heptan-2-yl)acetic acid]
< 1 | 38 | COc1cccc(-c2ccc(Cn3ncc4c(Cl)ccc(C(=O)NC5CC6(CC(CC(=O)O)C6)C5)c43)cc2)n1 [Example 149, (R)-2-(6-(4-Chloro-1-(4-(6-methoxypyridin-2-yl)benzyl)-1H-indazole-7-carboxamido)spiro[3.3]heptan-2-yl)acetic acid]
< 1 | < 25 | O=C(O)CC1CC2(C1)CC(NC(=O)c1cc(Cl)cc3cnn(Cc4ccc(-c5ccccc5)c(F)c4)c13)C2 (stereo not drawn) [Example 151, (Ra)-2-(6-(5-Chloro-1-((2-fluoro-[1,1′-biphenyl]-4-yl)methyl)-1H-indazole-7-carboxamido)spiro[3.3]heptan-2-yl)acetic acid]
< 1 | 49 | O=C(O)CC1CC2(C1)CC(NC(=O)c1cc(Cl)cc3cnn(Cc4ccc(-c5ccccc5)c(F)c4)c13)C2 (stereo not drawn) [Example 152, (Sa)-2-(6-(5-Chloro-1-((2-fluoro-[1,1′-biphenyl]-4-yl)methyl)-1H-indazole-7-carboxamido)spiro[3.3]heptan-2-yl)acetic acid]
< 1 | 95 | O=C(NC1CC2(C1)CC(C(=O)O)C2)c1cc(Cl)cc2cnn(Cc3ccc(-c4ccccc4)c(F)c3)c12 (stereo not drawn) [Example 153, (Sa)-6-(5-Chloro-1-((2fluoro-[1,1′-biphenyl]-4-yl)methyl)-1H-indazole-7-carboxamido)spiro[3.3]heptane-2-carboxylic acid]
2.8 | < 25 | COc1cc(-c2ccc(Cn3ncc4cc(Cl)cc(C(=O)NC5CC6(C5)CC(C(=O)O)C6)c43)cc2F)ccn1 (stereo not drawn) [Example 154, (Sa)-6-(5-Chloro-1-(3-fluoro-4-(2-methoxypyridin-4-yl)benzyl)-1H-indazole-7-carboxamido)spiro[3.3]heptane-2-carboxylic acid]
< 1 | < 25 | COc1cc(-c2ccc(Cn3ncc4cc(Cl)cc(C(=O)NC5CC6(C5)CC(C(=O)O)C6)c43)c(F)c2)ccn1 (stereo not drawn) [Example 156, (Sa)-6-(5-Chloro-1-(2-fluoro-4-(2-methoxypyridin-4-yl)benzyl)-1H-indazole-7-carboxamido)spiro[3.3]heptane-2-carboxylic acid]
< 1 | 65 | COc1cc(C(=O)NC2CC3(C2)CC(C(=O)O)C3)c2c(cnn2Cc2ccc(-c3ccccc3)cc2)c1 (stereo not drawn) [Example 159, (Sa)-6-(1-([1,1′-Biphenyl]-4-ylmethyl)-5-methoxy-1H-indazole-7-carboxamido)spiro[3.3]heptane-2-carboxylic acid]
